Results: patent US20240325370A1, “THERAPEUTIC REGIMENS OF A DEGRADER OF BRD9” (FOGHORN THERAPEUTICS INC., priority 2021, published 2024)
Entries after “also recorded” stand apart in the source; their conditions may differ.

Experiments:
[1] = system: synovial sarcoma cell lines (SYO1, Yamato, HS-SY-II, and ASKA); experiment: Growth of synovial sarcoma cell lines (IncuCyte confluency, crystal violet, colonies); assay type: cell-based, human; settings: 1 μM or indicated concentrations
Experimental: (§1) Cells were treated with DMSO or the BRD9 degrader, Compound 1, at indicated concentrations, and proliferation was monitored from day 7 to day 14 by measuring confluency over time using an IncuCyte live cell analysis system (FIG. 4). Growth medium and compounds were refreshed every 3-4 days.
(§2) Cells were seeded into 12-well plates and treated with DMSO, 1 μM BRD9 inhibitor, Compound 2 (also known as BI-7273, see Martin et al, J Med Chem. 59 (10): 4462-4475 (2016); see structure of compound 2 below), or 1 μM BRD9 degrader, Compound 1.
(§3) The number of cells was optimized for each cell line. Growth medium and compounds were refreshed every 3-5 days. SYO1, Yamato, A549, 293T and HS-SY-II cells were fixed and stained at day 11. ASKA cells were fixed and stained at day 23. Staining was done by incubation with crystal violet solution (0.5 g Crystal Violet, 27 ml 37% Formaldehyde, 100 mL 10×PBS, 10 mL Methanol, 863 dH20 to 1 L) for 30 min followed by 3× washes with water and drying the plates for at least 24 h at room temperature. Subsequently plates were scanned on an Odyssey CLx Imaging system (FIG. 5).
(§4) Cells were seeded into 96-well ultra-low cluster plate (Costar, #7007) in 200 μL complete media and treated at day 2 with DMSO, Staurosporin, or BRD9 degrader, Compound 1, at indicated doses (FIG. 2C). Media and compounds were changed every 5 d and cell colonies were imaged at day 14.

[2] = system: SYO1 cells; experiment: Cell cycle analysis (Click-iT Plus EdU Flow Cytometry Assay); assay type: cell-based, human; settings: 200 nM or 1 μM for 8 or 13 days; compared to DMSO and lenalidomide
Experimental: (§5) Procedure: SYO1 cells were treated for 8 or 13 days with DMSO, a BRD9 degrader (Compound 1) at 200 nM or 1 μM, or an E3 ligase binder (lenalidomide) at 200 nM. Compounds were refreshed every 5 days. Cell cycle analysis was performed using the Click-iTT Plus EdU Flow Cytometry Assay (Invitrogen). The apoptosis assay was performed using the Annexin V-FITC Apoptosis Detection Kit (Sigma A9210). Assays were performed according to the manufacturer's protocol.

[3] = system: non-synovial control cancer cell lines (293T, A549, G401); experiment: Growth of non-synovial control cancer cell lines; assay type: cell-based
Experimental: as §1, §2, §3, §4

[4] = system: non-synovial control cancer cell lines (RD, HCT116, and Calu6); experiment: Crystal violet growth assay, non-synovial control cancer cell lines, day 14; assay type: cell-based; settings: treated daily
Experimental: (§6) Procedure: Cells were seeded into 6-well or 12-well plates and were treated daily with a BRD9 degrader (Compound 1), a bromo-domain BRD9 binder (Compound 2), E3 ligase binder (lenalidomide), DMSO, or staurosporin (positive control for cell killing), at indicated concentrations. The number of cells was optimized for each cell line. Growth media was refreshed every 5 days. By day 14, medium was removed, cells were washed with PBS, and stained using 500 μL of 0.005% (w/v) crystal violet solution in 25% (v/v) methanol for at least 1 hour at room temperature. Subsequently plates were scanned on an Odyssey CLx Imaging system.

[5] = system: synovial sarcoma cell lines (SYO1, HS-SY-II, and ASKA); experiment: Crystal violet growth assay, synovial sarcoma cell lines, day 14; assay type: cell-based, human; settings: treated daily
Experimental: as §6

[6] = system: SYO1 cells; experiment: Apoptosis assay (Annexin V-FITC Apoptosis Detection Kit); assay type: cell-based, human; settings: 8 days; compared to DMSO controls
Experimental: as §5

[7] = system: ASKA synovial sarcoma xenografts; experiment: ASKA synovial sarcoma xenograft efficacy; assay type: in vivo; settings: for Tumor Growth (%) on Day 21 / Tumor Size (mm^3) on Day 21: Mean ± SEM; for T/C (%) / TGI (%): Day 21
Experimental: A study was conducted to examine anti-tumor efficacy of compound S-D1 with BIW IV dosing of the racemate, compound D1, for 3 weeks utilizing a second xenograft model of human synovial sarcoma, ASKA. Vehicle (0.5% HPMC, 0.1% Tween 80 in water, pH 1.3 to 1.5), administered orally, was used as the general comparator for all test article responses (i.e., tumor growth and body weight changes). Pazopanib and ifosfamide, two agents currently used in clinic to treat synovial sarcoma patients were compared to compound D1 treatment alone. Pazopanib was administered orally at 40 mg/kg QD and ifosfamide was given IV at 80 mg/kg QD for the first 3 days (Days 0, 1, and 2) in the 3-week treatment period, mimicking the equivalent treatment regimens for both drugs in human patients.

[8] = 80 mg/kg QD IV Day 0 to Day 2, ASKA xenograft
[9] = 40 mg/kg QD oral 3 weeks, ASKA xenograft

COc1cc(-c2cn(C)c(=O)c3cnccc23)cc(OC)c1CN(C)CC(=O)NCCOCCOCCNc1cccc2c1C(=O)N(C1CCC(=O)NC1=O)C2=O (centres unmarked) [Compound 1]
inhibition of the growth of the cells [1]: inhibition of the growth of the cells | numbers of cells in the S-phase of the cell cycle [2]: reduced numbers of cells in the S-phase | inhibition of the growth of the cells [3]: does not result in inhibition of the growth | inhibition of the growth of the cells [4]: did not result in inhibition of the growth | inhibition of the growth of the cells [5]: inhibition of the growth of the cells; also recorded: most significant growth inhibition | numbers of early- and late-apoptotic cells [6]: increased numbers of early- and late-apoptotic cells

COc1cc(-c2cn(C)c(=O)c3cnccc23)cc(OC)c1CN(C)C [Compound 2]
inhibition of the growth of the cells [1]: inhibition of the growth of the cells | inhibition of the growth of the cells [3]: does not result in inhibition of the growth | inhibition of the growth of the cells [4]: did not result in inhibition of the growth | inhibition of the growth of the cells [5]: inhibition of the growth of the cells

O=P1(NCCCl)OCCCN1CCCl (centres unmarked) [Ifosfamide, reference compound]
Tumor Growth (%) on Day 21 [7, 8]: 820 ± 56% | Tumor Size (mm^3) on Day 21 [7, 8]: 1164 ± 126 mm^3 | T/C (%) ([7]; 80 mg/kg QD IV Day 0 to Day 2): 67.2% | TGI (%) ([7]; 80 mg/kg QD IV Day 0 to Day 2): 32.8% | tolerability (body weight) ([7]; ASKA xenograft, 3-week treatment period): transient body weight loss occurred but recovered within a few days | tumor growth inhibition achieved ([7]; pazopanib 40 mg/kg QD oral, ifosfamide 80 mg/kg QD IV Days 0, 1, 2, ASKA xenograft): partial TGI

Cc1ccc(Nc2nccc(N(C)c3ccc4c(C)n(C)nc4c3)n2)cc1S(N)(=O)=O [Pazopanib, reference compound]
Tumor Growth (%) on Day 21 [7, 9]: 480 ± 33% | Tumor Size (mm^3) on Day 21 [7, 9]: 537 ± 56 mm^3 | T/C (%) ([7]; 40 mg/kg QD oral 3 weeks): 39.4% | TGI (%) ([7]; 40 mg/kg QD oral 3 weeks): 60.6%
